Results from patent US10987366B2, “Methods and compositions for protection of cells and tissues from computed tomography radiation” (The University of Chicago, priority 2010, dated 2021).

Experiments:
RKO36 cells [1] = assay: GFP direct repeat assay of delayed hyperrecombination (GFP+/- colonies); format: cell-based, human
Text: Gene conversion can produce a local loss of heterozygosity (LOH) as well as deletions and inversions at linked repeats and translocations (Nickoloff, 2002). The inventor has utilized a green fluorescence protein (GFP)-based assay using human RKO-derived cells to study the role of delayed hyper-recombination in radiation-induced genomic instability (Huang et al., 2004). A GFP direct repeat homologous recombination substrate is incorporated in RKO cells.
Genomic instability can be measured by analysis of delayed hyperrecombination and mutation/deletion at the GFP direct repeat substrate. GFP-RKO cells can be GFP− or GFP+. When these cells are plated, colonies arising from single cells are either homogenously colorless (GFP−) or green (GFP+). […] Mixed colonies arise by delayed hyperrecombination and can easily be scored using the criteria of having at least >4 cells per colony having an altered fluorescent phenotype. The frequency of induced instability can be calculated as the number of GFP+/− colonies per total surviving colonies scored.
Genomic instability was evaluated in RKO36 cells by analysis of delayed hyperrecombination and mutation/deletion at the GFP direct repeat substrate. […] The frequency of induced instability is calculated as the number of GFP+/− colonies per total surviving colonies scored (Huang et al., 2004). […]

RKO36 cells [2] = assay: Micronuclei formation in irradiated RKO36 cells; format: cell-based, human
Method: Under the treatment conditions in which cells were exposed to WR1065 either 30 min before or 3 h following irradiation the protective effect is the result of a direct interaction between the thiol taken up by the cells and the damage induced by radiation. This direct protective effect disappeared when the drug was added 6 h following irradiation. However, when cells were exposed to the thiol 24 h prior to irradiation to allow for the induction of elevated MnSOD enzyme levels, a protective effect was again observed ([…]). In contrast to the data described in FIG. 4A, the protection described in FIG. 4B was mediated not directly by thiol action (Grdina et al., 1995) but as a result of a thiol-induced adaptive response mediated through the activation of NFκB resulting in the elevation of MnSOD activity (Murley et al., 2002; Murley et al., 2004; Murley et al., 2006; Murley et al., 2007; Murley et al., 2008). For comparison, a radiation-induced adaptive response was investigated by first exposing RKO36 cells to 10 cGy and then challenging with a 2 Gy dose 0, 4, 8, 12, 16, 20, and 24 h later (see FIG. 5).

## NCCCNCCS [WR1065, 2-[(aminopropyl)amino]ethanethiol]
RKO36 cells [1]; 4 mM WR1065 for 30 min, no irradiation, P=0.02 vs non-WR1065 irradiated cells (2.7%)
  frequency of GFP+/- colonies: 1.1%
RKO36 cells [1]; 10 cGy given 24 h following 4 mM WR1065 for 30 min, P=0.05 vs non-WR1065 irradiated cells (2.7%)
  frequency of GFP+/- colonies: 1.6%
RKO36 cells [2]; 2 Gy challenge 24 h following WR1065 exposure
  micronuclei formation, thiol-induced adaptive response: reduction of micronuclei formation to unirradiated background levels
RKO36 cells [2]; 2 Gy, WR1065 30 min following irradiation (FIG. 4B)
  frequency of micronuclei formation: significantly reduced
RKO36 cells [2]; 2 Gy, WR1065 30 min prior to irradiation (FIG. 4A)
  frequency of micronuclei formation: significantly reduced
RKO36 cells [2]; 2 Gy, WR1065 1 h following irradiation (FIG. 4B)
  frequency of micronuclei formation: significantly reduced
RKO36 cells [2]; 2 Gy, WR1065 2 h following irradiation (FIG. 4B)
  frequency of micronuclei formation: significantly reduced
RKO36 cells [2]; 2 Gy, WR1065 3 h following irradiation (FIG. 4B)
  frequency of micronuclei formation: significantly reduced
RKO36 cells [2]; 2 Gy, WR1065 24 h prior to irradiation (FIG. 4A)
  frequency of micronuclei formation: significantly reduced
RKO36 cells [2]; 2 Gy, drug added 6 h following irradiation
  direct protective effect against micronuclei formation: disappeared
